Key:
[1] = system: Panc1, Panc1-gemr, Panc1-cisr and Panc1-gemr/cisr cells; test: Immunocytochemistry of E-, N- and VE-cadherin on Panc1 and chemoresistant Panc1 cells after Tamiflu (FIG. 25); format: cell-based, human; details: Tamiflu 600 μg/mL for 24 hours, Panc1 and drug resistant lines
Procedure: Turning to FIG. 25, oseltamivir phosphate by itself was able to reverse a partial EMT in human PANC1 cancer cell lines, including drug resistant cancer cell lines as evidenced by an upregulation in the epithelial marker E-cadherin and a downregulation in the mesenchymal marker N-cadherin. Expression of e-cadherin, n-cadherin, and Ve-cadherin on the surface of Pancl, Pancl-gemr, Pancl-cisr, and Pancl-gemr/cisr cells were determined following treatment with Tamiflu® 600 μg/mL for 24 hours. Immunocytochemistry was performed on fixed, nonpermeabilized cells. The indicated primary antibodies for Ecadherin, N-cadherin, and Ve-cadherin were used, followed by alexa Fluor® 594 (life Technologies inc, Burlington, ON, Canada) secondary antibody for the primary antibody against n-cadherin and Dylight™ 488 (santa cruz Biotechnology, inc, santa cruz, ca, Usa) secondary antibody for primary antibodies against e-cadherin and Ve-cadherin. The background controls had no primary antibody during the staining procedure. The stained cells were visualized after 24 hours using a Zeiss M2 Imager fluorescence microscope (Carl Zeiss ag, Oberkochen, germany) at 400× magnification. Images are representative of at least four fields of view in three separate trials. Quantitative analysis was done by assessing the density of cell staining corrected for background in each panel using corel Photo Paint 8.0 software (Corel Corporation, Ottawa, ON, Canada). each bar in the figures represents the mean (±standard error of the mean) corrected density of culture cell staining for equal cell density (5×10^5 cells) within the respective images. P-values represent significant differences at 95% confidence using Dunnett's multiple comparison test compared with untreated control group. (Abbreviations: 1° ab=primary antibody; Pancl-gemr=Pancl cells with established chemoresistance to 0.01 μM gemcitabine; Pancl-gemr/cisr=Pancl cells with established chemoresistance to a combination of 0.01 μM gemcitabine and 80 μM cisplatin; cad=cadherin; Bkg=background; se=standard error.)

[2] = system: enriched circulating tumour cells from a patient with colorectal cancer; test: Cultured enriched CTCs from a colorectal cancer patient treated with IL-6, IL-8 or PDGFBB (EpCAM, CD133, Lgr5 flow cytometry); format: cell-based, human; details: cultured CTCs from colorectal cancer patient
From the text: A blood sample was collected from a patient with colorectal cancer six days after surgery. Blood samples were enriched for CTCs using RosetteSep CD 56 kit according to standard protocol. Prior to cell culture, cells were stained with the following antibody cocktail: EpCAM A488, CD133PE, CD 45 PerCP Cy5.5, and Lgr5-PE-Vio770. Cells were either cultured in low attachment well plates without cytokines (control cells) or with three different cytokines (IL-6, IL-8 or PDGFBB).
Flow cytometry data was analysed using IDEAS software. Double events, out of focus events, CD45PercPCy5.5 positive cells, dead cells and non-nucleated events were eliminated from the fluorescence analysis of the cell population. Hoescht 33258 dye was used to stain nuclei of enriched CTCs. All experiments were stained with a fixable live/dead dye eFluor 506 to exclude dead cells.

[3] = system: HCT-15 cells; test: Cell subpopulations (CD44/CD24) in HCT-15 cell line after cytokine exposure, imaging flow cytometry; format: cell-based; design: unit not given here; details: HCT-15 cells after exposure to cytokines singly or in pairs
Procedure: Two authenticated colorectal carcinoma cell lines, HCT-15 and SW-620, were used to test the effect of different cytokine and cytokine cocktails, including IL-6, HGF, PGE-2, TGF-beta and MMP-9 alone or in a cocktail, on cell proliferation, EMT and cancer stem cell populations.
In order to evaluate stem cell populations, cells were synchronized by serum starvation for 72 hours before seeding in 24-well ultra low attachment plates at a density of 200,000 cells/well. Cells were then detached using trypsin EDTA and washed twice with PBS (without Calcium or Magnesium). A cell proliferation dye, eFluor 450 was used to label cells. Cells were grown with DMEM with high glucose and 2 mM Gluatmine without FBS in the presence of selected cytokines and or cytokine cocktails over a period of 72 hrs.
Cells that were grown in 5% serum were stained with the following antibody cocktails: CD24FITC, CD44PE and CD24FITC, CD133PE. Cells were also stained with a fixable live/dead efluor dye 506 to exclude dead cells. In parallel, cells were grown in the presence of 5% serum to evaluate CSC markers.
(§1) Cells were fixed in 1% Paraformaldehyde for 15 minutes at room temperature and run on Flowsight using 2 lasers (488 nm at 60 mW and 405 nm at 30 mW). For cell lines, 100,000 events were collected whilst for enriched CTCs all events were collected until the sample finished.
(§2) Flow cytometry data was analysed using IDEAS software. Double events, out of focus events, CD45PercPCy5.5 positive cells (in case of enriched CTCs), dead cells and non-nucleated events were eliminated from the fluorescence analysis of the cell population. FIG. 2 depicts scatterplots of flow cytometry experiments showing the enriched CTCs stained with an antibody containing CD44 after treatment with various cytokines and cytokine cocktails. Hoescht 33258 dye was used to stain nuclei in the case of the HCT-15 cell line and enriched CTCs. All experiments were stained with a fixable live/dead dye eFluor 506 to exclude dead cells.
To evaluate which cocktail combinations were most likely involved in cell proliferation of presumed quiescent stem cells or de-differentiated stem cell-like cells, four cytokines, IL-6, HGF, PGE-2 and TGF-beta were added singly or in pairs to HCT-15 cells. Results of combinations that influenced cell proliferation of HCT-15 cells in culture are presented. […] FIG. 4 depicts cell proliferation of subpopulations in the HCT-15 cell line after exposure to various cytokines and cytokine cocktails.

[4] = system: enriched circulating tumour cells from a patient with metastatic prostate cancer; test: Cell proliferation / cancer stem cell markers (EpCAM, CD44, CD133) in enriched CTCs cultured with cytokine cocktails; format: cell-based, human; details: for EpCAM + CD133+ cell subpopulation / EpCAM + CD133− cell subpopulation / EpCAM − CD133+ cell subpopulation / EpCAM − CD133− cell subpopulation: CD133 PE antibody cocktail; for EpCAM + CD44+ cell subpopulation / EpCAM + CD44− cell subpopulation / EpCAM − CD44+ cell subpopulation / EpCAM − CD44− cell subpopulation: cell culture period 8 days
Procedure: as §1
as §2, with “cocktails.” for “cocktails. Hoescht 33258 dye was used to stain nuclei in the case of the HCT-15 cell line and enriched CTCs. All experiments were stained with a fixable live/dead dye eFluor 506 to exclude dead cells.”
In order to determine if selected cytokines influence cell proliferation of circulating tumour cells (CTCs), whole blood was collected from a patient with metastatic prostate cancer. Circulating tumour cells were enriched from whole blood using RosetteSep CTC Enrichment cocktail. Briefly, samples of whole blood were incubated with RosetteSep (anti CD 56 for 20 minutes at room temperature). Phosphate buffered saline containing 2% Fetal Bovine Serum was added to the samples and layered on a Ficoll Paque gradient. After centrifugation, the supernatant which contained CTCs was washed twice with PBS containing 2% FBS. Equal volumes of the cell suspension were seeded into a 24-well ultra-low attachment polystyrene plate. […] FIG. 3 depicts scatterplots of flow cytometry experiments enriched CTCs stained with an antibody containing CD133 after treatment with various cytokines and cytokine cocktails.
FIG. 6 depicts cell proliferation of subpopulations in cultured CTCs after exposure to various cytokines and cytokine cocktails. Cells were stained using an antibody containing CD44 PE.
Cells were stained using an antibody containing CD133 PE.

[5] = system: SW-620 cells; test: SW-620 cells treated with cytokines with or without Irinotecan, flow cytometry for stem cell markers and apoptosis; format: cell-based, human; details: SW-620, cytokines 24 hours then 2 μM Irinotecan 36 hours; zero in non-treated control cells
Procedure: SW-620 cells, a human colorectal adenocarcinoma cell line, were treated with cytokines alone or in combination including IL-6, TGF-beta, HGF, PGE-2, IL-6+PGE-2 and TGF-beta+HGF for 24 hours and compared to untreated SW-620 cells as control. Some treated and untreated SW-620 cells were then exposed to 2 μM Irinotecan for 36 hours at which point cells were harvested for flow cytometry to assess for stem cell markers and markers of apoptosis. The percentage of CD44+CD133− cells following treatment with various cytokine and cytokine cocktails is depicted in FIG. 10. Compared to non-cytokine treated cells, combinations with IL-6+PGE-2, and TGF-beta+HGF increased the number and percentage of cells that were CD44+CD133− as shown in FIG. 10 (stem cells). FIG. 11 depicts the percentage of CD44+CD133− cells following treatment with various cytokines and Irinotecan. […]
Additionally, the percentage of CD44-CD133+ cells following treatment with various cytokines and cytokines cocktails was determined as depicted in FIG. 16. The percentage of CD44-CD133+ cells following treatment with various cytokines and Irinotecan was measured as depicted in FIG. 17. The percentage of CD44-CD133+ cells following treatment with various cytokine cocktails and Irinotecan was measured as depicted in FIG. 18. […]

[6] = listed as Oseltamivir Phosphate

Compound | CD24 + CD44− cell subpopulation [3] | CD44 + CD24+ cell subpopulation [3] | CD44 + CD24− cell subpopulation [3] | CD44 − CD24− cell subpopulation [3] | EpCAM + CD133+ cell subpopulation [4] | EpCAM + CD133− cell subpopulation [4] | EpCAM − CD133+ cell subpopulation [4] | EpCAM − CD133− cell subpopulation [4] | EpCAM + CD44+ cell subpopulation ([4]; CD44PE antibody cocktail) | EpCAM + CD44− cell subpopulation ([4]; CD44PE antibody cocktail) | EpCAM − CD44+ cell subpopulation ([4]; CD44PE antibody cocktail) | EpCAM − CD44− cell subpopulation ([4]; CD44PE antibody cocktail) | also measured
CCOC(=O)C1=C[C@@H](OC(CC)CC)[C@H](NC(C)=O)[C@@H](N)C1 [oseltamivir phosphate] |  |  |  |  |  |  |  |  |  |  |  |  | E-cadherin expression on cell surface [1]: upregulation; N-cadherin expression on cell surface [1]: downregulation; VE-cadherin expression on cell surface [1]: significant downregulation; E-cadherin expression on cell surface [1, 6]: statistically significant upregulation in the epithelial marker E-Cadherin in all 4 cell lines tested with the exception of the double resistant pancreatic cell line; N-cadherin expression on cell surface [1, 6]: Downregulation of N cadherin was seen in all cell lines tested
Il-8 |  |  |  |  |  |  |  |  |  |  |  |  | EpCAM + CD133+ cell subpopulation [2]: 0.13 percentages of gated subpopulations; EpCAM + CD133− cell subpopulation [2]: 2.51 percentages of gated subpopulations; EpCAM − CD133+ cell subpopulation [2]: 0.09 percentages of gated subpopulations; EpCAM − CD133− cell subpopulation [2]: 90.8 percentages of gated subpopulations
HGF: Hepatocyte Growth Factor added to cancer cells in culture | 58.6 | 3.29 | 0.31 | 35.9 | 17.2 percentages of gated subpopulations | 0.2 percentages of gated subpopulations | 80.8 percentages of gated subpopulations | 1.58 percentages of gated subpopulations | 16.8 percentage of gated cells | 4.89 percentage of gated cells | 2.12 percentage of gated cells | 74.9 percentage of gated cells | 
CCCCC[C@H](O)/C=C/[C@H]1[C@H](O)CC(=O)[C@@H]1C/C=C\CCCC(=O)O [PGE-2, prostaglandin E2, reference compound] | 58.7 | 7.3 | 0.61 | 32.4 | 10.4 percentages of gated subpopulations | 0 percentages of gated subpopulations | 86.7 percentages of gated subpopulations | 2.61 percentages of gated subpopulations | 27.2 percentage of gated cells | 1.75 percentage of gated cells | 4.23 percentage of gated cells | 65.5 percentage of gated cells | EpCAM-CD44+ cell sub-population ([4]; 8 days culture, no serum, CD44PE antibody cocktail): 4.23 % gated; percentage of CD44+CD133− stem cells [5]: enriched
